Tested on: B16 melanoma
Assay: Tumor growth and survival of mice which have a B16 melanoma
Type: in vivo, mouse
Settings: for inhibition of tumor growth: mice with subcutaneous B16 melanoma, dose of 300 mg/kg
Procedure: A melanoma is induced in a mouse by subcutaneous injection of tumor cells (B16 cells).
The tumor develops within 10 days in the subcutaneous position (ventral face of the thigh). The size of the tumor is measured with a caliper rule and its volume is estimated according to the formula V=L×w×w, in which L represents the length and w represents the width. Various compounds of the invention were administered to mice having received syngenic melanoma cells (B16) at a dose of 300 mg/kg.

Row | Substance | mortality in treated mouse group (after 18 days of treatment, 300 mg/kg, nontreated mouse group 40% mortality) | inhibition of tumor growth
1 | 6-(METHYL 6-DEOXY-α-D-MANNOPYRANOSIDE) BORONIC ACID [compound 7f] | no mortality | 65%
2 | METHYL 6-O-HYDROGENOPHOSPHONATE-α-D-MANNO-PYRANOSIDE [compound 4e] | – | 40%

Reference: patent US20130164387A9, “NOVEL MANNOPYRANOSIDE DERIVATIVES WITH ANTICANCER ACTIVITY” (Centre National De La Recherche Scientifique, priority 2009, published 2013)
